Values after ≈ are worked out from the molar mass of the structure shown. Where a SMILES comes first, the peptide text is derived from it. Bridges are numbered along the chain shown (N, C = ends). [ ]: non-standard residue; d: D form. The star is where a group is joined. X2 = CC[C@H](C)CCCCC(=O)*; Heptanoyl = CCCCCCC(=O)*; Octanoyl = CCCCCCCC(=O)*; Dab = NCC[C@H](N)C(=O)O; Nva = CCC[C@H](N)C(=O)O
Legend:
Format in all cases: cell-based
[1] = test system: Acinetobacter baumannii ATCC 19606; conditions: ATCC 19606
Procedure, shortened: (§1)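 Read-out was the lowest drug level in agar preventing visible colony growth after 18 to 24 hours at 35° C. Plates held twofold dilutions (0.03–128 μg/mL final), prepared following CLSI. Bacteria were inoculated at 10^4 CFU/dot with a multipoint inoculator.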

[2] = test system: Escherichia coli ATCC 25922; conditions: ATCC 25922
Procedure, shortened: as §1

[3] = test system: Pseudomonas aeruginosa ATCC 27853; conditions: ATCC 27853
Procedure, shortened: as §1

[4] = test system: Staphylococcus epidermidis ATCC 12228; conditions: ATCC 12228
Procedure, shortened: as §1

[5] = test system: Klebsiella pneumoniae ATCC BAA-2146 (NDM-1); assay: Antibacterial activity, MIC by dish double dilution method; conditions: ATCC BAA-2146
Procedure, shortened: as §1

Row | MIC A. baumannii ATCC 19606 [1] | MIC E. coli ATCC 25922 [2] | MIC P. aeruginosa ATCC 27853 [3] | MIC S. epidermidis ATCC 12228 [4] | MIC K. pneumoniae ATCC BAA-2146 (NDM-1) [5] | Structure (SMILES)
1 | 0.5 µg/mL (≈ 0.433 µM) | 0.5 µg/mL (≈ 0.433 µM) | 1 µg/mL (≈ 0.865 µM) | >128 µg/mL | 1 µg/mL (≈ 0.865 µM) | CCCCCCCC(=O)N[C@@H](CCN)C(=O)N[C@H](C(=O)N[C@@H](CCN)C(=O)N[C@H]1CCNC(=O)[C@H]([C@@H](C)O)NC(=O)[C@H](CCN)NC(=O)[C@H](CCN)NC(=O)[C@H]([C@@H](C)CC)NC(=O)[C@@H](CC(C)C)NC(=O)[C@H](CCN)NC1=O)[C@@H](C)O [Compound 79, octanoyl-Dab-Thr-Dab-ring(4-10)[Dab-Dab-D-Leu-Ile-Dab-Dab-Thr]] (Octanoyl-[Dab]T[Dab][Dab][Dab][dL]I[Dab][Dab]T; lactam 4-C)
2 | 1 µg/mL (≈ 0.876 µM) | 0.5 µg/mL (≈ 0.438 µM) | 1 µg/mL (≈ 0.876 µM) | >128 µg/mL | 0.5 µg/mL (≈ 0.438 µM) | CCCCCCCC(=O)N[C@@H](CCN)C(=O)N[C@H](C(=O)N[C@@H](CCN)C(=O)N[C@H]1CCNC(=O)[C@H]([C@@H](C)O)NC(=O)[C@H](CCN)NC(=O)[C@H](CCN)NC(=O)[C@H](C(C)C)NC(=O)[C@@H](CC(C)C)NC(=O)[C@H](CCN)NC1=O)[C@@H](C)O [Compound 80, octanoyl-Dab-Thr-Dab-ring(4-10)[Dab-Dab-D-Leu-Val-Dab-Dab-Thr]] (Octanoyl-[Dab]T[Dab][Dab][Dab][dL]V[Dab][Dab]T; lactam 4-C)
3 | 1 µg/mL (≈ 0.876 µM) | 0.5 µg/mL (≈ 0.438 µM) | 1 µg/mL (≈ 0.876 µM) | >128 µg/mL | 1 µg/mL (≈ 0.876 µM) | CCCCCCC(=O)N[C@@H](CCN)C(=O)N[C@H](C(=O)N[C@@H](CCN)C(=O)N[C@H]1CCNC(=O)[C@H]([C@@H](C)O)NC(=O)[C@H](CCN)NC(=O)[C@H](CCN)NC(=O)[C@H]([C@@H](C)CC)NC(=O)[C@@H](CC(C)C)NC(=O)[C@H](CCN)NC1=O)[C@@H](C)O [Compound 83, heptanoyl-Dab-Thr-Dab-ring(4-10)[Dab-Dab-D-Leu-Ile-Dab-Dab-Thr]] (Heptanoyl-[Dab]T[Dab][Dab][Dab][dL]I[Dab][Dab]T; lactam 4-C)

Continued, molecule first:

Row | Structure (SMILES) | MIC A. baumannii ATCC 19606 [1] | MIC E. coli ATCC 25922 [2] | MIC P. aeruginosa ATCC 27853 [3] | MIC S. epidermidis ATCC 12228 [4] | MIC K. pneumoniae ATCC BAA-2146 (NDM-1) [5]
4 | CCCCCCCC(=O)N[C@@H](CCN)C(=O)N[C@H](C(=O)N[C@@H](CCN)C(=O)N[C@H]1CCNC(=O)[C@H]([C@@H](C)O)NC(=O)[C@H](CCN)NC(=O)[C@H](CCN)NC(=O)[C@H](CCC)NC(=O)[C@@H](CC(C)C)NC(=O)[C@H](CCN)NC1=O)[C@@H](C)O [Compound 81, octanoyl-Dab-Thr-Dab-ring(4-10)[Dab-Dab-D-Leu-Nva-Dab-Dab-Thr]] (Octanoyl-[Dab]T[Dab][Dab][Dab][dL][Nva][Dab][Dab]T; lactam 4-C) | 1 µg/mL (≈ 0.876 µM) | 0.5 µg/mL (≈ 0.438 µM) | 1 µg/mL (≈ 0.876 µM) | >128 µg/mL | 1 µg/mL (≈ 0.876 µM)
5 | CCCCCCCC(=O)N[C@@H](CCN)C(=O)N[C@H](C(=O)N[C@@H](CO)C(=O)N[C@H]1CCNC(=O)[C@H]([C@@H](C)O)NC(=O)[C@H](CCN)NC(=O)[C@H](CCN)NC(=O)[C@H](CC(C)C)NC(=O)[C@@H](CC(C)C)NC(=O)[C@H](CCN)NC1=O)[C@@H](C)O [Compound 98, octanoyl-Dab-Thr-Ser-ring(4-10)[Dab-Dab-D-Leu-Leu-Dab-Dab-Thr]] (Octanoyl-[Dab]TS[Dab][Dab][dL]L[Dab][Dab]T; lactam 4-C) | 0.5 µg/mL (≈ 0.438 µM) | 0.5 µg/mL (≈ 0.438 µM) | 1 µg/mL (≈ 0.875 µM) | >128 µg/mL | 1 µg/mL (≈ 0.875 µM)
6 | CC[C@H](C)CCCCC(=O)N[C@@H](CCN)C(=O)N[C@H](C(=O)N[C@@H](CCN)C(=O)N[C@H]1CCNC(=O)[C@H]([C@@H](C)O)NC(=O)[C@H](CCN)NC(=O)[C@H](CCN)NC(=O)[C@H]([C@@H](C)O)NC(=O)[C@@H](CC(C)C)NC(=O)[C@H](CCN)NC1=O)[C@@H](C)O [Compound 102, (S)-6-methyloctanoyl-Dab-Thr-Dab-ring(4-10)[Dab-Dab-D-Leu-Thr-Dab-Dab-Thr]] (X2-[Dab]T[Dab][Dab][Dab][dL]T[Dab][Dab]T; lactam 4-C) | 0.5 µg/mL (≈ 0.432 µM) | 1 µg/mL (≈ 0.864 µM) | 1 µg/mL (≈ 0.864 µM) | >128 µg/mL | 0.25 µg/mL (≈ 0.216 µM)
7 | CCCCCCCC(=O)N[C@@H](CCN)C(=O)N[C@H](C(=O)N[C@@H](CCN)C(=O)N[C@H]1CCNC(=O)[C@H]([C@@H](C)O)NC(=O)[C@H](CCN)NC(=O)[C@H](CCN)NC(=O)[C@H]([C@@H](C)O)NC(=O)[C@@H](CC(C)C)NC(=O)[C@H](CCN)NC1=O)[C@@H](C)O [Compound 104, octanoyl-Dab-Thr-Dab-ring(4-10)[Dab-Dab-D-Leu-Thr-Dab-Dab-Thr]] (Octanoyl-[Dab]T[Dab][Dab][Dab][dL]T[Dab][Dab]T; lactam 4-C) | 0.5 µg/mL (≈ 0.437 µM) | 0.25 µg/mL (≈ 0.219 µM) | 1 µg/mL (≈ 0.875 µM) | 64 µg/mL (≈ 56 µM) | 0.5 µg/mL (≈ 0.437 µM)
8 | CCCCCCCC(=O)N[C@@H](CCN)C(=O)N[C@H](C(=O)N[C@@H](CCN)C(=O)N[C@H]1CCNC(=O)[C@H](CO)NC(=O)[C@H](CCN)NC(=O)[C@H](CCN)NC(=O)[C@H]([C@@H](C)O)NC(=O)[C@@H](CC(C)C)NC(=O)[C@H](CCN)NC1=O)[C@@H](C)O [Compound 109, octanoyl-Dab-Thr-Dab-ring(4-10)[Dab-Dab-D-Leu-Thr-Dab-Dab-Ser]] (Octanoyl-[Dab]T[Dab][Dab][Dab][dL]T[Dab][Dab]S; lactam 4-C) | 16 µg/mL (≈ 14.2 µM) | 1 µg/mL (≈ 0.885 µM) | 1 µg/mL (≈ 0.885 µM) | >128 µg/mL | 2 µg/mL (≈ 1.77 µM)
9 | CCCCCCCC(=O)N[C@@H](CCN)C(=O)N[C@H](C(=O)N[C@@H](CO)C(=O)N[C@H]1CCNC(=O)[C@H]([C@@H](C)O)NC(=O)[C@H](CCN)NC(=O)[C@H](CCN)NC(=O)[C@H]([C@@H](C)O)NC(=O)[C@@H](CC(C)C)NC(=O)[C@H](CCN)NC1=O)[C@@H](C)O [Compound 111, octanoyl-Dab-Thr-Ser-ring(4-10)[Dab-Dab-D-Leu-Thr-Dab-Dab-Thr]] (Octanoyl-[Dab]TS[Dab][Dab][dL]T[Dab][Dab]T; lactam 4-C) | 1 µg/mL (≈ 0.885 µM) | 0.5 µg/mL (≈ 0.442 µM) | 1 µg/mL (≈ 0.885 µM) | 64 µg/mL (≈ 56.6 µM) | 0.5 µg/mL (≈ 0.442 µM)
10 | CCCCCCCC(=O)N[C@@H](CCN)C(=O)N[C@H](C(=O)N[C@H](CO)C(=O)N[C@H]1CCNC(=O)[C@H]([C@@H](C)O)NC(=O)[C@H](CCN)NC(=O)[C@H](CCN)NC(=O)[C@H]([C@@H](C)O)NC(=O)[C@@H](Cc2ccccc2)NC(=O)[C@H](CCN)NC1=O)[C@@H](C)O [Compound 117, octanoyl-Dab-Thr-D-Ser-ring(4-10)[Dab-Dab-D-Phe-Thr-Dab-Dab-Thr]] (Octanoyl-[Dab]T[dS][Dab][Dab][dF]T[Dab][Dab]T; lactam 4-C) | 0.25 µg/mL (≈ 0.215 µM) | 0.5 µg/mL (≈ 0.429 µM) | 2 µg/mL (≈ 1.72 µM) | >128 µg/mL | 0.5 µg/mL (≈ 0.429 µM)

— US20190315806A1, “POLYMYXIN DERIVATIVE, PREPARATION METHOD AND APPLICATION THEREOF” (priority 2016, published 2019)
